Source: US5059679A, “Method of selectively sulfating peptides” (Shin-Etsu CHemical Co., Ltd., priority 1988, dated 1991)
Non-standard residues stand in square brackets, D forms with d. Residues, ends and D or L forms follow the SMILES beside them. sY = N[C@@H](Cc1ccc(OS(=O)(=O)O)cc1)C(=O)O

How the values were obtained:
[1] = system: gastric juice, pepsin release and pancreas secretion; assay: Gastric juice, pepsin release and pancreas secretion in living rats; format: in vivo; conditions: living samples of rats
[2] = Activity compared with swine CCK-33 (test not specified); conditions: conclusion drawn through CCK-8
Experimental: (§1) Bolus injections of 1.0, 3.125, 6.25, 12.5, 25, 50, 100 and 200 picomoles per kg body weight of the synthetic hCCK-33 and CCK-8 were given through a femoral vein catheter each at an interval of 60 minutes. […] The increasing effect could be noted even with the lowest dose of 3.125 picomoles/kg and the highest effect was obtained with the dose of 200 picomoles/kg. The activity of the synthetic hCCK-33 was 92% of that of the synthetic CCK-8 on the molar basis in respect of the effects on the blood flow in the pancreas capillary vessel and the protein release from pancreas. […] Since the ratio of the activity of the unsulfated hCCK-33 to the activity of CCK-8, taken as unity on the molar basis, was 0.074 in the aforementioned assay with dogs, it was concluded that an important role is played by the sulfated sites in the molecules having influences on the in vivo activity of CCKs.

[3] = system: excised gastric tissues; assay: Stimulation of pepsinogen secretion from excised gastric tissues of guinea pigs; format: cell-based
[4] = system: blood flow in the pancreas capillary vessel; assay: Bioassay in anesthetized dogs: blood flow in the pancreas capillary vessel (laser-Doppler perfusion monitor); format: in vivo, mongrel dogs
Experimental: The synthetic hCCK-33 was concurrently subjected to the bioassay with synthetic hCCK-8 to determine the activity. The bioassay was carried out by measuring the blood flow in the pancreas capillary vessel and the protein release from pancreas using a group of four mongrel dogs anesthesized with pentobarbital. The blood flow in the pancreas capillary vessel was measured using a laser-Doppler perfusion monitor and the protein concentration in the pancreas was determined according to the method of O. H. Lowry, N. J. Rosebrough, A. L. Farr and R. J. Randall, J. Biol. Chem. 193, 265 (1951). Bolus injections of 1.0, 3.125, 6.25, 12.5, 25, 50, 100 and 200 picomoles per kg body weight of the synthetic hCCK-33 and CCK-8 were given through a femoral vein catheter each at an interval of 60 minutes. […] The increasing effect could be noted even with the lowest dose of 3.125 picomoles/kg and the highest effect was obtained with the dose of 200 picomoles/kg. […] The color intensity by the ninhydrin reaction was determined using a Shimadzu Dual Wavelength TLC Scanner Model CS-900. […] The blood flow in pancreas capillary vessel was monitored using a laser-Doppler perfusion monitor (Model LD 5000 manufactured by Seattle Model Pacific Co., Wash., U.S.A.).

[5] = system: protein release from pancreas; assay: Bioassay in anesthetized dogs: protein release from pancreas (Lowry method); format: in vivo, mongrel dogs
Experimental: as §1, with “The synthetic hCCK-33 was concurrently subjected to the bioassay with synthetic hCCK-8 to determine the activity. The bioassay was carried out by measuring the blood flow in the pancreas capillary vessel and the protein release from pancreas using a group of four mongrel dogs anesthesized with pentobarbital. The blood flow in the pancreas capillary vessel was measured using a laser-Doppler perfusion monitor and the protein concentration in the pancreas was determined according to the method of O. H. Lowry, N. J. Rosebrough, A. L. Farr and R. J. Randall, J. Biol. Chem. 193, 265 (1951). Bolus” for “Bolus”, “CCKs. FIG. 6 illustrates the increase in the protein release from pancreas of an anesthetized dog in response to these 3 kinds of CCK-peptides.” for “CCKs.”

[6] = bolus injection through femoral vein catheter, 1.0-200 picomoles per kg
[7] = bolus injections 1.0-200 picomoles per kg

**Q.** For `CC[C@H](C)[C@H](NC(=O)[C@H](CCCNC(=N)N)NC(=O)[C@H](Cc1c[nH]cn1)NC(=O)[C@H](CO)NC(=O)[C@@H]1CCCN1C(=O)[C@H](CC(=O)O)NC(=O)[C@H](CC(C)C)NC(=O)[C@H](CC(N)=O)NC(=O)[C@H](CCC(N)=O)NC(=O)[C@H](CC(C)C)NC(=O)[C@H](CC(N)=O)NC(=O)[C@H](CCCCN)NC(=O)[C@@H](NC(=O)[C@@H](NC(=O)[C@H](CO)NC(=O)[C@H](CCSC)NC(=O)[C@H](CCCNC(=N)N)NC(=O)CNC(=O)[C@H](CO)NC(=O)[C@@H]1CCCN1C(=O)[C@H](C)NC(=O)[C@@H](N)CCCCN)[C@@H](C)CC)C(C)C)C(=O)N[C@@H](CO)C(=O)N[C@@H](CC(=O)O)C(=O)N[C@@H](CCCNC(=N)N)C(=O)N[C@@H](CC(=O)O)C(=O)N[C@@H](Cc1ccc(OS(=O)(=O)O)cc1)C(=O)N[C@@H](CCSC)C(=O)NCC(=O)N[C@@H](Cc1c[nH]c2ccccc12)C(=O)N[C@@H](CCSC)C(=O)N[C@@H](CC(=O)O)C(=O)N[C@@H](Cc1ccccc1)C(N)=O` [synthetic hCCK-33] (H-KAPSGRMSIVKNLQNLDPSHRISDRD[sY]MGWMDF-NH2), which “activity relative to CCK-8 on the molar basis, gastric juice, pepsin release and pancreas secretion” value [1] is on record?
**A.** Its value is “about two to three times more active than the CCK-8”.

**Q.** What about the “activity compared with natural swine CCK-33” value [2] of the same compound?
**A.** The value was “comparable with or even higher than”.

**Q.** And the “activity relative to CCK-8 on the molar basis, stimulation of pepsinogen secretion” value [3]?
**A.** Its value is “about the same as the CCK-8”.

**Q.** What about the “activity relative to synthetic CCK-8 on the molar basis, blood flow in the pancreas capillary vessel” value [4, 6] of the same compound?
**A.** Its value is 92%.

**Q.** And the “pancreas blood flow, dose dependence” value [4, 7]?
**A.** Its value is “increased in parallel with the dose”.

**Q.** And the “dose giving the highest effect” value ([5]; bolus injection)?
**A.** The value was 200 picomoles/kg.

**Q.** What about the “lowest dose at which the increasing effect could be noted” value ([5]; bolus injection) of the same compound?
**A.** The value was 3.125 picomoles/kg.

**Q.** And the “activity relative to synthetic CCK-8 on the molar basis, protein release from pancreas” value [5, 6]?
**A.** The value was 92%.

**Q.** What about the “protein release from pancreas, dose dependence” value [5, 7] of the same compound?
**A.** Its value is “increased in parallel with the dose”.
